Results from patent publication US4873347A, “Process for the preparation of the demalonyl compound of macrolide lactones” (Hoechst Aktiengesellschaft, priority 1986, dated 1989).
Converted amounts (≈) assume the structure as drawn.

Legend:
Format in all cases: cell-based
[1] = test system: yeasts (Candida albicans) and molds (Aspergillus niger); experiment: in vitro tests for an antimycotic action in serial dilution, overall result in words; settings: compared with reference substance niphimycin
Description: (§1) The in vitro tests for an antimycotic action are carried out in serial dilution tests on yeasts (Candida albicans) and molds (Aspergillus niger) [Material and Methods: Microtitration technique published in Mykosen 27, 14 (1984)].

Candida albicans = experiment: in vitro serial dilution test for antimycotic action (microtitration technique), yeast; settings: read-out: Minimum inhibitory concentration for Candida albicans
Description: as §1

Aspergillus niger = experiment: in vitro serial dilution test for antimycotic action (microtitration technique), mold; settings: read-out: Minimum inhibitory concentration for Aspergillus niger
Description: as §1

Structure (SMILES)	antimycotic properties [1]	MIC (Candida albicans)	MIC (Aspergillus niger)
CNC(=N)NCCCC=CCCCC(C)CC(C)C1OC(=O)C(C)C(O)C=CC(C)C(O)CC(O)C(C)C(O)CCC(C)C(O)CC2(O)OC(CC(O)CC(O)CC(O)C(C)C(O)C=CC=CC1C)CC(O)C2O (centres unmarked) [Demalonyl compound]	good antimycotic properties which are superior to those of the reference substance niphimycin	3.9 µg/mL (≈ 3.69 µM)	1.95 µg/mL (≈ 1.85 µM)
CNC(=N)NCCCC=CCCCC(C)CC(C)C1OC(=O)C(C)C(O)C=CC(C)C(O)CC(O)C(C)C(O)CCC(C)C(O)CC2(O)OC(CC(OC(=O)CC(=O)O)CC(O)CC(O)C(C)C(O)C=CC=CC1C)CC(O)C2O (centres unmarked) [Niphimycin, reference compound]	–	7.8 µg/mL (≈ 6.83 µM)	3.9 µg/mL (≈ 3.41 µM)
